pIC50: −log10 of the molar value.
Experiments:
[1] = target: T1, human V1a receptor (Homo sapiens, UniProt P37288); experiment: Cellular in vitro assay for determining vasopressin receptor activity, V1a receptor cell line (CHO, aequorin luminescence); assay type: cell-based; conditions: for pIC50: CHO cell line transfected with human V1a receptor, [Arg]-vasopressin at EC50 concentration, read-out: IC50 hV1a; for ratio IC50 hV2/hV1a: selectivity ratio IC50 hV2 / IC50 hV1a
T1 construct: expressed in transfected cells; host or cells: CHO K1 (ATCC), also stably transfected with a modified aequorin
T1 sequence (P37288 whole entry): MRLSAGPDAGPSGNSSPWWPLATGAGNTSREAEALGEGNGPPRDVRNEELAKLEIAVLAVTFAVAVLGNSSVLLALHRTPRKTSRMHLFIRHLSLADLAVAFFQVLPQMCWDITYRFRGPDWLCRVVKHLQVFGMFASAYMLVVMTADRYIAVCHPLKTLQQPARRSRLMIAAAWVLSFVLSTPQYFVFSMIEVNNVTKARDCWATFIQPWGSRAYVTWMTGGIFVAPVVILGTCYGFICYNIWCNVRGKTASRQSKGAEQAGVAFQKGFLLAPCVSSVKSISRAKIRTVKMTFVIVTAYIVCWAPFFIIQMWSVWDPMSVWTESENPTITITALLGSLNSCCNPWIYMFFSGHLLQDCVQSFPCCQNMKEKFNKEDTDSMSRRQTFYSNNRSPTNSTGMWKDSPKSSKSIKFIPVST
Method in brief: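 Antagonism is measured in stable CHO K1 transfectants coexpressing the Gαq-coupled receptor and a calcium-sensitive aequorin photoprotein. Agonist challenge uses [Arg]-vasopressin at EC50 after a 10-minute compound exposure; IC50 values come from the luminescence signal.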

[2] = target: T2, human V2 receptor (Homo sapiens, UniProt P30518); experiment: Cellular in vitro assay for determining vasopressin receptor activity, V2 receptor cell line (CHO, CRE-luciferase); assay type: cell-based; conditions: CHO cell line transfected with human V2 receptor; [Arg8]-vasopressin at EC50 concentration, 3 hours; read-out: IC50 hV2
T2 construct: expressed in transfected cells; host or cells: CHO K1 (ATCC) expressing firefly luciferase under a CRE-responsive promoter
T2 sequence (P30518 whole entry): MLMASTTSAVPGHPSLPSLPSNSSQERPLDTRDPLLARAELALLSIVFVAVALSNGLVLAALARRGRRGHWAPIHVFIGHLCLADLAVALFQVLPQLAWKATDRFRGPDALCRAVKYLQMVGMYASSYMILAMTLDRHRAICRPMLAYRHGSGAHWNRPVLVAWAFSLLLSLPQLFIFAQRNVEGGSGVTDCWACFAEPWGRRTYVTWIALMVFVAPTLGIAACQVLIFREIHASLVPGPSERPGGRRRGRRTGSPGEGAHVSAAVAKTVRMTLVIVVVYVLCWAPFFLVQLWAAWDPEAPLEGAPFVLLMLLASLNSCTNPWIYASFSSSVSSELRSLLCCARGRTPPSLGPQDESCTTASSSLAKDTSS

pIC50 [1]	ratio IC50 hV2/hV1a [1]	pIC50 [2]	Compound
5.69	15.6	4.49	O=c1n(Cc2ncn(-c3cccnc3NCC3CS(=O)(=O)C3)n2)nc(-c2ccc(Cl)cc2)n1C[C@H](O)C(F)(F)F [Example 72, 5-(4-Chlorophenyl)-2-{[1-(2-{[(1,1-dioxidothietan-3-yl)methyl]amino}pyridin-3-yl)-1H-1,2,4-triazol-3-yl]methyl}-4-[(2S)-3,3,3-trifluoro-2-hydroxypropyl]-2,4-dihydro-3H-1,2,4-triazol-3-one]
7.28	13.4	6.15	CC(=O)Nc1ncccc1-n1cnc(Cn2nc(-c3ccc(Cl)cc3)n(C[C@H](O)C(F)(F)F)c2=O)n1 [Example 73, N-{3-[3-({3-(4-Chlorophenyl)-5-oxo-4-[(2S)-3,3,3-trifluoro-2-hydroxypropyl]-4,5-dihydro-1H-1,2,4-triazol-1-yl}methyl)-1H-1,2,4-triazol-1-yl]pyridin-2-yl}acetamide]
8.25	154.5	6.06	O=C(CC(F)(F)F)Nc1ncccc1-n1cnc(Cn2nc(-c3ccc(Cl)cc3)n(C[C@H](O)C(F)(F)F)c2=O)n1 [Example 74, N-{3-[3-({3-(4-Chlorophenyl)-5-oxo-4-[(2S)-3,3,3-trifluoro-2-hydroxypropyl]-4,5-dihydro-1H-1,2,4-triazol-1-yl}methyl)-1H-1,2,4-triazol-1-yl]pyridin-2-yl}-3,3,3-trifluoropropanamide]
8.18	270.7	5.74	O=C(Nc1ncccc1-n1cnc(Cn2nc(-c3ccc(Cl)cc3)n(C[C@H](O)C(F)(F)F)c2=O)n1)C1CC(F)(F)C1 [Example 80, N-{3-[3-({3-(4-Chlorophenyl)-5-oxo-4-[(2S)-3,3,3-trifluoro-2-hydroxypropyl]-4,5-dihydro-1H-1,2,4-triazol-1-yl}methyl)-1H-1,2,4-triazol-1-yl]pyridin-2-yl}-3,3-difluorocyclobutanecarboxamide]
8.69	658.5	5.87	O=C(Nc1ncccc1-n1cnc(Cn2nc(-c3ccc(Cl)cc3)n(C[C@H](O)C(F)(F)F)c2=O)n1)C1(C(F)(F)F)CC1 [Example 81, N-{3-[3-({3-(4-Chlorophenyl)-5-oxo-4-[(2S)-3,3,3-trifluoro-2-hydroxypropyl]-4,5-dihydro-1H-1,2,4-triazol-1-yl}methyl)-1H-1,2,4-triazol-1-yl]pyridin-2-yl}-1-(trifluoromethyl)cyclopropanecarboxamide]
8.27	106.5	6.24	O=C(Nc1ncccc1-n1cnc(Cn2nc(-c3ccc(Cl)cc3)n(C[C@H](O)C(F)(F)F)c2=O)n1)C1CC1 [Example 83, N-{3-[3-({3-(4-Chlorophenyl)-5-oxo-4-[(2S)-3,3,3-trifluoro-2-hydroxypropyl]-4,5-dihydro-1H-1,2,4-triazol-1-yl}methyl)-1H-1,2,4-triazol-1-yl]pyridin-2-yl}cyclopropanecarboxamide]
8.13	673.5	5.31	O=C(Nc1ncccc1-n1cnc(Cn2nc(-c3ccc(Cl)cc3)n(C[C@H](O)C(F)(F)F)c2=O)n1)C1CC1F (stereo partly drawn) [Example 85, N-{3-[3-({3-(4-Chlorophenyl)-5-oxo-4-[(2S)-3,3,3-trifluoro-2-hydrxypropyl]-4,5-dihydro-1H-1,2,4-triazol-1-yl}methyl)-1H-1,2,4-triazol-1-yl]pyridin-2-yl}-2-fluorocyclopropanecarboxamide]
8.32	228.1	5.96	O=C(CC1CC1)Nc1ncccc1-n1cnc(Cn2nc(-c3ccc(Cl)cc3)n(C[C@H](O)C(F)(F)F)c2=O)n1 [Example 87, N-{3-[3-({3-(4-Chlorophenyl)-5-oxo-4-[(2S)-3,3,3-trifluoro-2-hydroxypropyl]-4,5-dihydro-1H-1,2,4-triazol-1-yl}methyl)-1H-1,2,4-triazol-1-yl]pyridin-2-yl}-2-cyclopropylacetamide]
7.39	28.7	5.93	O=C(Cn1cncn1)Nc1ncccc1-n1cnc(Cn2nc(-c3ccc(Cl)cc3)n(C[C@H](O)C(F)(F)F)c2=O)n1 [Example 88, N-{3-[3-({3-(4-Chlorophenyl)-5-oxo-4-[(2S)-3,3,3-trifluoro-2-hydroxypropyl]-4,5-dihydro-1H-1,2,4-triazol-1-yl}methyl)-1H-1,2,4-triazol-1-yl]pyridin-2-yl}-2-(1H-1,2,4-triazol-1-yl)acetamide]
7.44	51.4	5.73	O=C(Cc1cccnc1)Nc1ncccc1-n1cnc(Cn2nc(-c3ccc(Cl)cc3)n(C[C@H](O)C(F)(F)F)c2=O)n1 [Example 89]
7.05	17.2	5.81	CN1CC(C(=O)Nc2ncccc2-n2cnc(Cn3nc(-c4ccc(Cl)cc4)n(C[C@H](O)C(F)(F)F)c3=O)n2)CC1=O (stereo partly drawn) [Example 90]
6.71	6.4	5.90	O=C(CN1CCCC1=O)Nc1ncccc1-n1cnc(Cn2nc(-c3ccc(Cl)cc3)n(C[C@H](O)C(F)(F)F)c2=O)n1 [Example 91]
6.62	7.3	5.76	Cc1cnn(CC(=O)Nc2ncccc2-n2cnc(Cn3nc(-c4ccc(Cl)cc4)n(C[C@H](O)C(F)(F)F)c3=O)n2)c1 [Example 92]
8.12	66.0	6.30	O=C(Nc1ncccc1-n1cnc(Cn2nc(-c3ccc(Cl)cc3)n(C[C@H](O)C(F)(F)F)c2=O)n1)c1cncc(F)c1 [Example 93]
7.80	140.6	5.65	Cc1nccn1CC(=O)Nc1ncccc1-n1cnc(Cn2nc(-c3ccc(Cl)cc3)n(C[C@H](O)C(F)(F)F)c2=O)n1 [Example 94]
7.04	23.4	5.67	O=C(Nc1ncccc1-n1cnc(Cn2nc(-c3ccc(Cl)cc3)n(C[C@H](O)C(F)(F)F)c2=O)n1)c1ccccc1 [Example 95]
8.68	266.7	6.25	CNCC(=O)Nc1ncccc1-n1cnc(Cn2nc(-c3ccc(Cl)cc3)n(C[C@H](O)C(F)(F)F)c2=O)n1 [Example 96]

pIC50 [1]	ratio IC50 hV2/hV1a [1]	pIC50 [2]	Compound
6.87	15.2	5.69	O=C(Cc1ccccc1)Nc1ncccc1-n1cnc(Cn2nc(-c3ccc(Cl)cc3)n(C[C@H](O)C(F)(F)F)c2=O)n1 [Example 97]
6.90	7.6	6.02	CC1(C(=O)Nc2ncccc2-n2cnc(Cn3nc(-c4ccc(Cl)cc4)n(C[C@H](O)C(F)(F)F)c3=O)n2)CCCO1 (stereo partly drawn) [Example 98]
7.40	100.0	5.40	CC1CC(=O)NC1C(=O)Nc1ncccc1-n1cnc(Cn2nc(-c3ccc(Cl)cc3)n(C[C@H](O)C(F)(F)F)c2=O)n1 (stereo partly drawn) [Example 99]
7.58	40.2	5.97	O=C(Nc1ncccc1-n1cnc(Cn2nc(-c3ccc(Cl)cc3)n(C[C@H](O)C(F)(F)F)c2=O)n1)c1csnn1 [Example 100]
6.96	17.7	5.71	O=C(Nc1ncccc1-n1cnc(Cn2nc(-c3ccc(Cl)cc3)n(C[C@H](O)C(F)(F)F)c2=O)n1)c1ccccc1O [Example 101]
7.10	14.4	5.94	Cc1cc(C(=O)Nc2ncccc2-n2cnc(Cn3nc(-c4ccc(Cl)cc4)n(C[C@H](O)C(F)(F)F)c3=O)n2)on1 [Example 102]
6.81	15.5	5.62	O=C(CN1CCCCC1)Nc1ncccc1-n1cnc(Cn2nc(-c3ccc(Cl)cc3)n(C[C@H](O)C(F)(F)F)c2=O)n1 [Example 103]
8.08	193.9	5.80	O=C(Nc1ncccc1-n1cnc(Cn2nc(-c3ccc(Cl)cc3)n(C[C@H](O)C(F)(F)F)c2=O)n1)c1cnccn1 [Example 104]
6.89	8.5	5.96	O=C(CC1CCCCC1)Nc1ncccc1-n1cnc(Cn2nc(-c3ccc(Cl)cc3)n(C[C@H](O)C(F)(F)F)c2=O)n1 [Example 105]
8.63	510.6	5.92	Cn1nccc1C(=O)Nc1ncccc1-n1cnc(Cn2nc(-c3ccc(Cl)cc3)n(C[C@H](O)C(F)(F)F)c2=O)n1 [Example 106]
8.25	125.7	6.15	Cc1cccc(C(=O)Nc2ncccc2-n2cnc(Cn3nc(-c4ccc(Cl)cc4)n(C[C@H](O)C(F)(F)F)c3=O)n2)n1 [Example 107]
7.50	22.2	6.15	Cc1nc(C(=O)Nc2ncccc2-n2cnc(Cn3nc(-c4ccc(Cl)cc4)n(C[C@H](O)C(F)(F)F)c3=O)n2)no1 [Example 108]
6.94	58.7	5.17	CN1CCC(C(=O)Nc2ncccc2-n2cnc(Cn3nc(-c4ccc(Cl)cc4)n(C[C@H](O)C(F)(F)F)c3=O)n2)CC1 [Example 109]
8.20	83.3	6.28	CCn1ccc(C(=O)Nc2ncccc2-n2cnc(Cn3nc(-c4ccc(Cl)cc4)n(C[C@H](O)C(F)(F)F)c3=O)n2)n1 [Example 110]
8.33	276.6	5.89	CCn1nccc1C(=O)Nc1ncccc1-n1cnc(Cn2nc(-c3ccc(Cl)cc3)n(C[C@H](O)C(F)(F)F)c2=O)n1 [Example 111]
6.77	388.2	4.18	CCn1cc(C(=O)Nc2ncccc2-n2cnc(Cn3nc(-c4ccc(Cl)cc4)n(C[C@H](O)C(F)(F)F)c3=O)n2)cn1 [Example 112]

Reference: patent US11173151B2, “Substituted triazole derivatives and uses thereof” (BAYER AKTIENGESELLSCHAFT, priority 2017, dated 2021)
